For one experiment, the system named is TNFα. The experiment can be described thus: IRAK4 Monocyte TNFα Cell Based Assay. On the set-up: species or system human. Summed up:
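Human monocytes (5,000/well) pretreated with compound 1 h at 37 °C (0.1% DMSO final), then stimulated with 50 pg/ml LPS for 4 h. Secreted TNFα measured by TR-FRET two-antibody detection after overnight incubation at room temperature; % control relative to unstimulated and LPS-stimulated wells.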

The next experiment deals with IRAK4 enzyme (Homo sapiens (Human), UniProt Q9NWZ3). The experiment can be described thus: IRAK4 Biochemical Assay (TR-FRET, STK1 KinEASE). Summed up: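 IRAK4 (0.75 nM) preincubated 15 min with compound and […] STK1 peptide, then started with 500 μM ATP in HEPES pH 7.0 buffer with MgCl2, DTT, BSA, NP-40; 120 min at room temperature.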
Chain of IRAK4 enzyme (Q9NWZ3 whole entry): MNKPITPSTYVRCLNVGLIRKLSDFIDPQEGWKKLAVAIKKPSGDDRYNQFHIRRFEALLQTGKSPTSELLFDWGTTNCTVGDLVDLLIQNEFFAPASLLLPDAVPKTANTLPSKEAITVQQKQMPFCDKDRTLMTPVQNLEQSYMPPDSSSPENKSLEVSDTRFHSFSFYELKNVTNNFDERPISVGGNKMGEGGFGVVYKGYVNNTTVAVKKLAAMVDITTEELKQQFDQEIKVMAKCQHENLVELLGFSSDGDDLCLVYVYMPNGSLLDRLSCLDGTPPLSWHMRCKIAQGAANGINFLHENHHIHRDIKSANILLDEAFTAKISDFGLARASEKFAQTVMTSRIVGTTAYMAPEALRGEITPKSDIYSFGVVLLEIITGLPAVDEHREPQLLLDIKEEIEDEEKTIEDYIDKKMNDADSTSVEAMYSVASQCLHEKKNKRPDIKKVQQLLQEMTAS
Where [1] appears, read: Homo sapiens, Monocyte, human monocytes, second part of Table 2, compounds 33-343, unit inferred, read-out: EC50 MONO TNF HTRF.
Setting [2] is: human monocytes, second part of Table 2, compounds 33-343, unit inferred, read-out: EC50 MONO TNF HTRF.
Setting [3] is: second part of Table 2, compounds 33-343, unit inferred, read-out: IC50 IRAK4-HTBS.

Read-outs that look alike come from different tables or passages of the source.

As to `CC(C)Nc1cc(-c2ccc3cc(C#N)cnn23)ncc1-c1nnc(C(=O)NC[C@@H](F)C(C)(C)O)s1` [Example 14, (R)-5-(6-(3-cyanopyrrolo[1,2-b]pyridazin-7-yl)-4-(isopropylamino)pyridin-3-yl)-N-(2-fluoro-3-hydroxy-3-methylbutyl)-1,3,4-thiadiazole-2-carboxamide], the EC50 in the experiment on TNFα (Homo sapiens, Monocyte, human monocytes, LPS stimulated, compounds 1-32, read-out: EC50 TNF) is 79 nM. Also, at IRAK4 enzyme (compounds 1-32, read-out: IC50 HTRF), the IC50 is under 1 nM.

Consider `CC(C)Nc1cc(-c2ccc3cc(C#N)cnn23)ncc1-c1nnc(N2C3CCC2COC3)s1` [Compound 236, 7-(5-(5-(3-oxa-8-azabicyclo[3.2.1]octan-8-yl)-1,3,4-thiadiazol-2-yl)-4-(isopropylamino)pyridin-2-yl)pyrrolo[1,2-b]pyridazine-3-carbonitrile], for which, in the experiment on TNFα (Homo sapiens, Monocyte, read-out: EC50 MONO TNF HTRF), the EC50 was 25.8 nM. At IRAK4 enzyme, this compound returned an IC50 of 0.83 nM.

As for `CC(C)Nc1cc(-c2ccc3cc(C#N)cnn23)ncc1-c1nnc(N2CCN3CCOC[C@@H]3C2)s1` [Example 35, (S)-7-(5-(5-(hexahydropyrazino[2,1-c][1,4]oxazin-8(1H)-yl)-1,3,4-thiadiazol-2-yl)-4-(isopropylamino)pyridin-2-yl)pyrrolo[1,2-b]pyridazine-3-carbonitrile], the EC50 in the experiment on TNFα (setting [1]) is 78.2 nM. Besides, at IRAK4 enzyme, 0.87 nM corresponded to half-maximal inhibition (IC50).

In the case of `CC(C)Nc1cc(-c2ccc3cc(C#N)cnn23)ncc1-c1nnc([C@H]2C[C@@H]2C(C)(C)O)s1` (single isomer, unassigned; isomer 2) [132 Isomer 2], the EC50 with TNFα (setting [2]) amounted to 15.2 nM. At IRAK4 enzyme (setting [3]), the IC50 came out at 1.3 nM.

As for `CC(C)Nc1cc(-c2ccc3cc(C#N)cnn23)ncc1-c1nnc([C@H]2CC[C@H](NC(=O)C3(C)COC3)CC2)s1` [Example 314, N-((1r,4r)-4-(5-(6-(3-cyanopyrrolo[1,2-b]pyridazin-7-yl)-4-(isopropylamino)pyridin-3-yl)-1,3,4-thiadiazol-2-yl)cyclohexyl)-3-methyloxetane-3-carboxamide], in the experiment on TNFα (setting [1]), the EC50 stood at 10.1 nM. Also, half-maximal inhibition on IRAK4 enzyme (IC50) required 0.55 nM.

As for `CC(C)Nc1cc(-c2ccc3cc(C#N)cnn23)ncc1-c1nnc([C@@H]2C[C@H]2C(C)(C)O)s1` (single isomer, unassigned; isomer 1) [132 Isomer 1], the EC50 with TNFα (setting [2]) was determined as 12.5 nM. In addition, on IRAK4 enzyme (setting [3]), the IC50 is 1.29 nM.

With `CC(=O)N[C@H]1CC[C@H](c2nnc(-c3cnc(-c4ccc5cc(C#N)cnn45)cc3NC(C)C)s2)C1` [Compound 247, N-((1S,3S)-3-(5-(6-(3-cyanopyrrolo[1,2-b]pyridazin-7-yl)-4-(isopropylamino)pyridin-3-yl)-1,3,4-thiadiazol-2-yl)cyclopentyl)acetamide], in the experiment on TNFα (setting [1]), the concentration giving a half-maximal response (EC50) came out at 25.1 nM. Besides, it took 0.8 nM to reach half-maximal inhibition on IRAK4 enzyme (IC50).

With `CC(=O)NC1CCC2(CC1)CN(c1nnc(-c3cnc(-c4ccc5cc(C#N)cnn45)cc3NC(C)C)s1)C2` [Example 69, N-(2-(5-(6-(3-cyanopyrrolo[1,2-b]pyridazin-7-yl)-4-(isopropylamino)pyridin-3-yl)-1,3,4-thiadiazol-2-yl)-2-azaspiro[3.5]nonan-7-yl)acetamide], in the experiment with TNFα (setting [1]), the EC50 was determined as 11.8 nM. The compound also registered an IC50 against IRAK4 enzyme of 1.16 nM.

In the case of `CNc1cc(-c2ccc3cc(C#N)cnn23)ncc1-c1nnc(N2CC[C@H](NC(C)=O)C(F)(F)C2)s1` [Example 307, (S)-N-(1-(5-(6-(3-cyanopyrrolo[1,2-b]pyridazin-7-yl)-4-(methylamino)pyridin-3-yl)-1,3,4-thiadiazol-2-yl)-3,3-difluoropiperidin-4-yl)acetamide], in the experiment on TNFα (setting [1]), the EC50 worked out at 53.7 nM. In addition, half-maximal inhibition on IRAK4 enzyme (IC50) was put at 0.83 nM.

By EC50 is commonly meant the concentration giving half of the maximal effect. For orientation: IC50 means the point on the concentration scale where inhibition reaches its midpoint.

The values are drawn from patent US11046686B2, “Thiadiazole IRAK4 compounds” (Gilead Sciences, Inc., priority 2018, dated 2021).
